Experimental data taken from patent publication US20240246967A1, “AXL COMPOUNDS” (ARCUS BIOSCIENCES, INC., priority 2021, published 2024).

How the values were obtained:
[1] = biological target: T1, human MER (Homo sapiens, UniProt Q12866); assay: HTRF KinEASE-TK biochemical potency assay, MER; details: 1 nM MER, 700 μM ATP, 800 nM TK Substrate-biotin
T1 construct: purchased Invitrogen
T1 sequence (Q12866 21-999): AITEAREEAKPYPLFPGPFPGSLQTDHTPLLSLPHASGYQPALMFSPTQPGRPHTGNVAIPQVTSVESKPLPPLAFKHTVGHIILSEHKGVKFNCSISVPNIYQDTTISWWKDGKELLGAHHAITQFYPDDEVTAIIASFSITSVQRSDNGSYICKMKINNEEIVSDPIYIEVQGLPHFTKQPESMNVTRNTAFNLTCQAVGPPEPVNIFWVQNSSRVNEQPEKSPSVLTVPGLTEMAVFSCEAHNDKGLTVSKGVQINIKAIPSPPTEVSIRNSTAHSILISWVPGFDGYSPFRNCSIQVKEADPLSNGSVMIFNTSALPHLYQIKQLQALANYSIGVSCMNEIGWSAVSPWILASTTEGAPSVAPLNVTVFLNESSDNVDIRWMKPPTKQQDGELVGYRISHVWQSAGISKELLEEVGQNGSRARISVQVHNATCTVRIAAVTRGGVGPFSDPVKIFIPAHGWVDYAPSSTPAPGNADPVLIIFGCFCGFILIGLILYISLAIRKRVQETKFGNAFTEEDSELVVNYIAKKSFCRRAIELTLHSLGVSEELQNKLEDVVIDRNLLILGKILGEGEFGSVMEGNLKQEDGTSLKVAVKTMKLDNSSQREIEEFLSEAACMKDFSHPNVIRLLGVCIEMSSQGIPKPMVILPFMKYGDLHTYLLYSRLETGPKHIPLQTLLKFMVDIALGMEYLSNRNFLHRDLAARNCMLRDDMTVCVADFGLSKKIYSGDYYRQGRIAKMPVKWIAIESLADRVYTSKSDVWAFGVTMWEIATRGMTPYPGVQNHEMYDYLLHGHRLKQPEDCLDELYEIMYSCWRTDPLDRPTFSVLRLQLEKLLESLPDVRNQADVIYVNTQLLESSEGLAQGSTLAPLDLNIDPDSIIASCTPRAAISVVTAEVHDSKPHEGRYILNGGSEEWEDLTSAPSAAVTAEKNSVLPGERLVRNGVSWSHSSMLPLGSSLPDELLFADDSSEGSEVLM
Method: (§1) Purified recombinant human AXL, TYRO3 and MER proteins were purchased from Invitrogen™. 10 nM AXL, 2 nM TYRO3 or MER were incubated with varying concentrations of compounds in 50 mM HEPES, pH 7.4, 10 mM MgCl2, 0.01% BSA, 1 mM DTT and 2% DMSO in a total volume of 20 μl in a 384-well microplate (Corning™ #3640) at RT for 1 h. The AXL, TYRO3 and MER enzymatic reaction was initiated by transferring 10 μl of enzyme and compound mixture into 10 μl of 1.6 μM TK Substrate-biotin (HTRF® KinEASE-TK kit, Cisbio) and 1400 μM ATP pre-incubated in 50 mM HEPES, pH 7.4, 10 mM MgCl2, 0.01% BSA, 1 mM DTT in a 384-well microplate (Corning™ #3640) at RT, giving the final reaction conditions: 5 nM AXL, 1 nM TYRO3 or MER, 800 nM TK Substrate-biotin and 700 μM ATP in 50 mM HEPES, pH 7.4, 10 mM MgCl2, 0.01% BSA, 1 mM DTT and 1% DMSO with varying concentrations of compounds. Following 2 h incubation at RT, the AXL, TYRO3 and MER enzymatic reaction was stopped by transfer of 10 μl of reaction into 10 μl of detection mix (400 nM Streptavidin-XL665, 200-fold dilution TK Antibody-Cryptate and detection buffer, HTRF® KinEASE-TK kit, Cisbio) in a white 384-well microplate (Perkin Elmer, OptiPlate 384). After 1 h incubation at RT, the plate was put into a plate reader (Evision) to read at 665/620 nm (acceptor/donor) for HTRF. The value of the DMSO blank (MIN inhibition=100% activity) was used as a negative control. The positive control was established by adding 5 μl of enzyme and DMSO mixture into 10 μl of detection mix followed by addition of 5 μl of TK Substrate-biotin and ATP mixture (MAX inhibition=0% activity). To calculate the percent activity, Equation 1 was used. Ratio 665/620 is the value at a given compound concentration: […]

[2] = biological target: T2, human TYRO3 (Homo sapiens, UniProt Q06418); assay: HTRF KinEASE-TK biochemical potency assay, TYRO3; details: 1 nM TYRO3, 700 μM ATP, 800 nM TK Substrate-biotin
T2 construct: purchased Invitrogen
T2 sequence (Q06418 41-890): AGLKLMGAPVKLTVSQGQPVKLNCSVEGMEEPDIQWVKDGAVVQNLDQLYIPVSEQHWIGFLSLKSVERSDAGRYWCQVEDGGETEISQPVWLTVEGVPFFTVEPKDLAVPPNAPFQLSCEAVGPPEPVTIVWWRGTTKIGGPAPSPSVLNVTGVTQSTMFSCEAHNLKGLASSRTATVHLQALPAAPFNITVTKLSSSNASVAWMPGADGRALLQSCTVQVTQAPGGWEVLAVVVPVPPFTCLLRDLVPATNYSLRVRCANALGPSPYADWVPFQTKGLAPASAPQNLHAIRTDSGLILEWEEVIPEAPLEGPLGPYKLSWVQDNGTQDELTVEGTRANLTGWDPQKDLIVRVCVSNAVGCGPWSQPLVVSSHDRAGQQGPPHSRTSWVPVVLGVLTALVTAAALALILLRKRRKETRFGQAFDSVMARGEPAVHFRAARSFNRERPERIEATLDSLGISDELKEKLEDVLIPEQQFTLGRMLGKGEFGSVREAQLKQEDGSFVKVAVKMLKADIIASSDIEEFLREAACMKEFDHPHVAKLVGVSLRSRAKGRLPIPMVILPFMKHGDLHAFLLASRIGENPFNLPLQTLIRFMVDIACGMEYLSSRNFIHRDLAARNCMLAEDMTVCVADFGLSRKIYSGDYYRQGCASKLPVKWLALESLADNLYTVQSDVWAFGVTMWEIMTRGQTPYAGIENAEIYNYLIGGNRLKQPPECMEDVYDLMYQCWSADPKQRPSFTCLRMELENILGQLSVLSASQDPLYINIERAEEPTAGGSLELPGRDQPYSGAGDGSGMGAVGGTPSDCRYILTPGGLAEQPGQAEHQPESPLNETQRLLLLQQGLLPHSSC
Method: as §1

Row | SMILES | IC50 [1] [nM] | IC50 [2] [nM]
1 | COC1CCN(S(=O)(=O)c2ccc(-c3n[nH]c4ncc(-c5ccc6c(c5)CCC(C)(N5CCC[C@H]5C)CC6)cc34)cc2)CC1 (stereo partly drawn) [Example 103, 3-(4-((4-Methoxypiperidin-1-yl)sulfonyl)phenyl)-5-(7-methyl-7-((R)-2-methylpyrrolidin-1-yl)-6,7,8,9-tetrahydro-5H-benzo[7]annulen-2-yl)-1H-pyrazolo[3,4-b]pyridine] | > 1000 | 100 to 1000
2 | C[C@@H]1CCCN1C1CCc2ccc(-c3cnc4[nH]nc(-c5ccc(C(C)(C)O)c(Cl)c5)c4c3)cc2CC1 (stereo partly drawn) [Example 35, 2-(2-Chloro-4-(5-(7-((R)-2-methylpyrrolidin-1-yl)-6,7,8,9-tetrahydro-5H-benzo[7]annulen-2-yl)-1H-pyrazolo[3,4-b]pyridin-3-yl)phenyl)propan-2-ol] | 100 to 1000 | 100 to 1000
3 | C[C@@H]1CCCN1C1CCc2ccc(-c3cnc4[nH]nc(-c5ccc(S(C)(=O)=O)cc5)c4c3)cc2CC1 (stereo partly drawn) [Example 38, 5-(7-((R)-2-Methylpyrrolidin-1-yl)-6,7,8,9-tetrahydro-5H-benzo[7]annulen-2-yl)-3-(4-(methylsulfonyl)phenyl)-1H-pyrazolo[3,4-b]pyridine] | 100 to 1000 | < 100
4 | Cc1cc(-c2n[nH]c3ncc(-c4ccc5c(c4)CC[C@@H](N4CCCC4)CC5)cc23)cc(Cl)c1C(=O)N1CCNCC1 [Example 56, 1-(2-Chloro-6-methyl-4-{5-[(7S)-7-(pyrrolidin-1-yl)-6,7,8,9-tetrahydro-5H-benzo[7]annulen-2-yl]-1H-pyrazolo[3,4-b]pyridin-3-yl}benzoyl)piperazine] | < 100 | < 100
5 | C[C@@H]1CCCN1C1(C)CCc2ccc(-c3cnc4[nH]nc(-c5ccc(S(=O)(=O)C6CCC6)cc5)c4c3)cc2CC1 (stereo partly drawn) [Example 46, 3-(4-(Cyclobutylsulfonyl)phenyl)-5-(7-methyl-7-((R)-2-methylpyrrolidin-1-yl)-6,7,8,9-tetrahydro-5H-benzo[7]annulen-2-yl)-1H-pyrazolo[3,4-b]pyridine] | 100 to 1000 | 100 to 1000
6 | Cc1cc(-c2n[nH]c3ncc(-c4ccc5c(c4)CCN(C(=O)C(C)C)CC5)cc23)ccc1C(=O)N1CCNCC1 [Example 48, 2-Methyl-1-(7-{3-[3-methyl-4-(piperazine-1-carbonyl)phenyl]-1H-pyrazolo[3,4-b]pyridin-5-yl}-2,3,4,5-tetrahydro-1H-3-benzazepin-3-yl)propan-1-one] | > 1000 | 100 to 1000
7 | CC(C)(O)c1ccc(-c2n[nH]c3ncc(-c4ccc5c(c4)CCN(C4CCCC4)CC5)cc23)cc1C(F)(F)F [Example 16, 2-{4-[5-(3-Cyclopentyl-2,3,4,5-tetrahydro-1H-3-benzazepin-7-yl)-1H-pyrazolo[3,4-b]pyridin-3-yl]-2-(trifluoromethyl)phenyl}propan-2-ol] | 100 to 1000 | 100 to 1000
8 | COCCS(=O)(=O)c1ccc(-c2n[nH]c3ncc(-c4ccc5c(c4)CCC(C)(N4CCC[C@H]4C)CC5)cc23)cc1 (stereo partly drawn) [Example 111, (2R)-1-(2-{3-[4-(2-Methoxyethanesulfonyl)phenyl]-1H-pyrazolo[3,4-b]pyridin-5-yl}-7-methyl-6,7,8,9-tetrahydro-5H-benzo[7]annulen-7-yl)-2-methylpyrrolidine] | 100 to 1000 | < 100
9 | CC(C)(O)c1ccc(-c2n[nH]c3ncc(-c4ccc5c(c4)CCC(N4CCC[C@@H]4CO)CC5)cc23)cc1Cl (stereo partly drawn) [Example 21, 2-[2-Chloro-4-(5-{7-[(2R)-2-(hydroxymethyl)pyrrolidin-1-yl]-6,7,8,9-tetrahydro-5H-benzo[7]annulen-2-yl}-1H-pyrazolo[3,4-b]pyridin-3-yl)phenyl]propan-2-ol] | 100 to 1000 | 100 to 1000
10 | C[C@@H]1CCCN1C1(C)CCc2ccc(-c3cnc4[nH]nc(-c5ccc(C(C)(C)O)nc5)c4c3)cc2CC1 (stereo partly drawn) [Example 22, 2-[5-(5-{7-Methyl-7-[(2R)-2-methylpyrrolidin-1-yl]-6,7,8,9-tetrahydro-5H-benzo[7]annulen-2-yl}-1H-pyrazolo[3,4-b]pyridin-3-yl)pyridin-2-yl]propan-2-ol] | 100 to 1000 | < 100
11 | CCS(=N)(=O)c1ccc(-c2n[nH]c3ncc(-c4ccc5c(c4)CCC(C)(N4CCC[C@H]4C)CC5)cc23)cc1 (stereo partly drawn) [Example 100, Ethyl(imino)[4-(5-{7-methyl-7-[(2R)-2-methylpyrrolidin-1-yl]-6,7,8,9-tetrahydro-5H-benzo[7]annulen-2-yl}-1H-pyrazolo[3,4-b]pyridin-3-yl)phenyl]-λ^6-sulfanone] | 100 to 1000 | 100 to 1000
12 | C[C@@H]1CCCN1C1(C)CCc2ccc(-c3cnc4[nH]nc(-c5ccc(C(N)=O)c(F)c5)c4c3)cc2CC1 (stereo partly drawn) [Example 52, 2-Fluoro-4-(5-(7-methyl-7-((R)-2-methylpyrrolidin-1-yl)-6,7,8,9-tetrahydro-5H-benzo[7]annulen-2-yl)-1H-pyrazolo[3,4-b]pyridin-3-yl)benzamide] | 100 to 1000 | < 100
13 | COc1cc(-c2n[nH]c3ncc(-c4ccc5c(c4)CCC(C)(N4CCC[C@H]4C)CC5)cc23)ccc1OC[C@H]1COCCO1 (stereo partly drawn) [Example 114, (2R)-1-{2-[3-(4-{[(2R)-1,4-Dioxan-2-yl]methoxy}-3-methoxyphenyl)-1H-pyrazolo[3,4-b]pyridin-5-yl]-7-methyl-6,7,8,9-tetrahydro-5H-benzo[7]annulen-7-yl}-2-methylpyrrolidine] | > 1000 | 100 to 1000
14 | C[C@@H]1CCCN1[C@@H]1CCc2cc(-c3cnc4[nH]nc(-c5ccc(S(=O)(=O)C6CC6)cc5)c4c3)cnc2CC1 [Example 101, (2R)-1-(3-{3-[4-(Cyclopropanesulfonyl)phenyl]-1H-pyrazolo[3,4-b]pyridin-5-yl}-5H,6H,7H,8H,9H-cyclohepta[b]pyridin-7-yl)-2-methylpyrrolidine] | > 1000 | 100 to 1000
